32 compounds from PubChem BioAssay (NCI) can be followed below.

SMILES strings stand for the structures.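 Step 1: Grow cells in 96-well plates. Step 2: Expose to compound for 48 hours at 5 concentrations. Step 3: Interpolate endpoints linearly; if unreached, use highest concentration. GI50 = concentration required for 50% inhibition of growth. At the TGI there is no net growth.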

What all share (experiment): NCI tumour cell line growth inhibition, 48 h
Test [1] deals with COLO 205 colon.
The test system of test [2] is NCI-H226 lung.
Test [3] deals with K-562 leukemia.
Test [4] deals with SR leukemia.
The subject of test [5] is RPMI-8226 leukemia.
Test [6] has as its system U251 CNS.
Test [7] has as its system A498 renal.
The test system of test [8] is A549 NSCLC.
In test [9] the test system is SK-MEL-28 melanoma.

In the case of `CC1=CCC2(C#N)CCC1C2=O` (configuration not stated), the TGI in test [1], in test [2], in [3], in [4], in test [5] and in test [6] was more than 100 µM in each case. The TGI in [7] and in [8] was more than 100 µM throughout.

With `CC(C)OCN1COCN=C1NC#N`, the TGI in [1] is 47.9 µM; in test [2], more than 100 µM; in test [3], more than 100 µM; in [9], more than 100 µM; in test [4], more than 100 µM; in [6] it was more than 100 µM. The TGI in test [7] and in test [8] was more than 100 µM throughout.

For the compound `COc1ccc(C(=O)C(C(=O)C(=O)Nc2nc3ccc(OC)cc3s2)c2ccc(OC)cc2)cc1` (configuration not stated), the TGI in test [1], in test [2], in test [3], in test [9], in test [5] and in test [6] was more than 100 µM throughout. The TGI in [7] and in [8] was more than 100 µM in each case.

As for `Cc1ccccc1NC(=O)C(=O)Cc1nc2ccccc2s1`, the TGI in test [1], in test [2], in [3], in test [9], in [4] and in [6] was more than 100 µM each time. For the same compound, the TGI in [7] and in [8] was more than 100 µM in each case.

For `Nc1nc(N)c(-c2ccccc2)c(C(=O)Nc2ccc(Cl)c(Cl)c2)n1`, the TGI in [2], in [3], in test [9], in [5], in [6] and in [7] was more than 100 µM throughout. Further, the TGI in [8] was more than 100 µM.

For the compound `O=C(O)/C(O)=C1/C=C(c2ccccc2)c2ccccc21`, the TGI in [1] came out at 31.9 µM; in test [2], 59.6 µM; in [3], 73.5 µM; in test [4], 47.1 µM; in [5] it was 56.8 µM; in test [6], 35.9 µM. For the same compound, the TGI in [7] amounted to 98.9 µM; in test [8] it was 71.4 µM.

`C=C(CO)CC(O)c1ccccc1` (configuration not stated): the TGI in test [1], in test [2], in test [3], in [9], in test [5] and in test [6] was more than 100 µM in each case. Also, the TGI in test [7] and in test [8] was more than 100 µM in each case.

As for `CC1CC2C3CC(F)C4=CC(=O)C=CC4(C)C3(F)C(O)CC2(C)C1(O)C(=O)CO` (configuration not stated), the TGI in [1], in [2], in test [3], in [9], in test [4] and in test [5] was more than 100 µM throughout. For the same compound, the TGI in test [6] and in test [8] was more than 100 µM throughout.

In the case of `COc1cc(C2C(C(=O)O)=C(C)Oc3cc4c(cc32)OCO4)cc(OC)c1OC` (configuration not stated), the TGI in test [1] was 60.6 µM; in [3], more than 100 µM; in test [9] it was more than 100 µM; in test [6], more than 100 µM; in test [8], more than 100 µM.

Turning to `CSc1s[s+]c(SC)c1[O-]`, the TGI in test [1] was 68.8 µM; in [2], more than 100 µM; in test [3], 25.2 µM; in [9], 34.2 µM; in test [4] it was 37 µM; in test [6], 86.5 µM. For the same compound, the TGI in test [7] and in test [8] was more than 100 µM in each case.

For the compound `Cc1cccc(NC(=O)CC2C(=O)Nc3ccccc3S2(=O)=O)c1C` (configuration not stated), the TGI was more than 100 µM in test [1]; 58.3 µM in [2]; more than 100 µM in [3]; more than 100 µM in test [9]; 48 µM in test [4]; 78.1 µM in test [6]. Also, the TGI in test [7] and in test [8] was more than 100 µM each time.

For `COCCN1C2=CCCCC2=Nc2c(N)nc(N)nc21`, the TGI in [1], in test [2], in test [3], in test [9], in [4] and in test [5] was more than 100 µM each time. Further, the TGI in [6], in [7] and in test [8] was more than 100 µM throughout.

Turning to `COC(=O)C1CCc2c(OC)ccc(OC)c2C1=O` (configuration not stated), the TGI in [1], in test [3], in test [9], in test [5], in [6] and in [7] was more than 100 µM in each case. Also, in test [8], the TGI is more than 100 µM.

On to `CNC(=O)OCc1nc(S(C)=O)n(C)c1COC(=O)NC` (configuration not stated), for which the TGI in test [1] was more than 62.6 µM; in test [2], more than 100 µM; in test [3], more than 100 µM; in test [9] it was more than 100 µM; in test [4], more than 100 µM; in [5], more than 100 µM. In addition, the TGI in test [6] is more than 100 µM; in test [7], more than 65.6 µM; in test [8] it was more than 46.4 µM.

For the compound `CCCCCCCCCCCCCCCCCC(=O)NCCCNCCCNC(=O)CCCCCCCCCCCCCCCCC`, the TGI in test [1], in test [2], in [3], in test [9], in [5] and in test [6] was more than 100 µM throughout. In addition, the TGI in [7] and in [8] was more than 100 µM throughout.

Turning to `CN/N=C(\C)CC(=O)Nc1cccc(Cl)c1C`, the TGI in test [1] was more than 100 µM; in [2], more than 100 µM; in test [3], more than 100 µM; in test [9], more than 100 µM; in [4], 53.5 µM; in test [5] it was more than 100 µM. Further, the TGI in [6], in test [7] and in [8] was more than 100 µM in each case.

In the case of `C/C=C(/C)C(=O)OC1C=C(CO)C(=O)C(OC(=O)/C(C)=C\C)C1C(C)C` (configuration not stated), the GI50 is 0.823 µM in [1]; 2.41 µM in test [2]; 0.401 µM in [3]; 1.39 µM in [9]; 0.315 µM in test [4]; 0.337 µM in [5]. Besides, the GI50 in test [6] was 0.708 µM; in test [7] it was 1.55 µM; in [8] it was 1.45 µM. Moreover, the TGI in test [1] was 2.75 µM; in test [2], 6.01 µM; in [3], 19.2 µM; in test [9], 2.8 µM; in test [4] it was 3.69 µM; in [5], 1.37 µM. Besides, the values for the TGI in [6], in test [7] and in [8] were 2.03 µM, 2.95 µM and 2.94 µM, respectively.

Consider `COC(=O)C(C(=O)C(=O)Nc1ccccc1OC)c1csc(-n2nc(-c3ccccc3)cc2-c2ccccc2)n1` (configuration not stated), for which the TGI in test [1], in [2], in [3], in test [4], in [5] and in test [6] was more than 100 µM in each case. The TGI in test [7] and in [8] was more than 100 µM in each case.

On to `Cc1ccc(C(=O)/C=C/c2ccccc2Cl)cc1`, for which the TGI in [1] was determined as 47.2 µM; in [2] it was 61 µM; in [3], 46 µM; in [9], 29.2 µM; in test [5], 44.4 µM; in test [6], 30.3 µM. Besides, the TGI in [7] is 72.5 µM; in test [8] it was 85.4 µM.

Regarding `N/C(=N\C(=S)N1CCCCC1)N1CCCCC1`, the TGI in [2], in [3], in [9], in [4], in test [5] and in test [6] was more than 100 µM in each case. Further, the TGI in test [7] and in test [8] was more than 100 µM throughout.

Regarding `O=C(Nc1cc(C(F)(F)F)ccc1Cl)C(=O)C(C(=O)c1ccc2ccccc2c1)C1OC(=O)c2ccccc21` (configuration not stated), the TGI in test [1] is 37.3 µM; in test [2] it was 3.36 µM; in test [3], 49.6 µM; in [9], 13.1 µM; in test [4], 14.9 µM; in [5], more than 54.5 µM. The TGI was 14.3 µM in test [6], 20.8 µM in [7] and more than 100 µM in test [8].

With `CC1CC(=O)C(C(O)CC2CC(=O)N(c3ccccc3)C(=O)C2)C(C)C1` (configuration not stated), the TGI in [1], in [2], in test [3], in test [9], in [4] and in [5] was more than 100 µM in each case. Besides, the TGI in [6], in test [7] and in test [8] was more than 100 µM throughout.

Regarding `O=C1CCC(=O)c2cc(Br)ccc2N1`, the TGI in test [1] is more than 100 µM; in test [2], more than 100 µM; in test [3] it was more than 100 µM; in test [9], more than 100 µM; in test [4] it was 63.1 µM; in [5], more than 100 µM. Moreover, the TGI in test [6], in test [7] and in [8] was more than 100 µM each time.

`CN(C)CC1(C)CC/C(=C\c2ccc3c(c2)OCO3)C1=O` (configuration not stated): the TGI in [1] is more than 100 µM; in test [2] it was more than 100 µM; in test [3], more than 100 µM; in test [9], more than 100 µM; in test [4], more than 100 µM; in test [5], 81.4 µM. The TGI in test [6], in test [7] and in test [8] was more than 100 µM each time.

Take `CC(=O)O[C@H]1CCC2[C@@H]3CCC4C(=O)c5oncc5C[C@]4(C)C3CC[C@@]21C` (some centres not stated): the TGI in test [1], in [3], in [9], in test [5], in [6] and in [7] was more than 100 µM throughout. This compound also registered a TGI in [8] of more than 100 µM.

On to `O=C(O)C1Cc2nc[nH]c2CN1` (configuration not stated), for which the TGI in test [1], in test [2], in test [3], in test [9], in [4] and in test [5] was more than 100 µM throughout. The TGI in test [6], in test [7] and in test [8] was more than 100 µM in each case.

`O=C(C#Cc1c[nH]c(=O)[nH]c1=O)c1ccccc1`: the TGI was 19.6 µM in test [1]; 63.9 µM in test [2]; 14.4 µM in test [3]; 22.9 µM in test [9]; 30.1 µM in [5]; 26.9 µM in test [6]. Also, the TGI in test [7] was 29.1 µM; in test [8], 64.1 µM.

In the case of `COC1OC(C)C(OC(=O)C(C)(C)C)C(C)(O)C1O` (configuration not stated), the TGI in test [1], in [3], in [9], in test [4], in [5] and in [6] was more than 100 µM each time. The TGI in test [7] and in test [8] was more than 100 µM throughout.

`O=C1OC(=O)C2C3CCC(O3)C12` (configuration not stated): the TGI in [1], in test [2], in [3], in test [9], in [4] and in [5] was more than 100 µM in each case. Also, the TGI in [6], in [7] and in test [8] was more than 100 µM in each case.

For `Cc1ccc(NC(=O)SCCC(=O)O)cc1NC(=O)SCCC(=O)O`, the TGI was more than 10 µM in test [1]; more than 100 µM in test [2]; more than 100 µM in [3]; more than 100 µM in test [9]; more than 100 µM in [4]; more than 100 µM in test [5]. The TGI in [6], in [7] and in [8] was more than 100 µM in each case.

As to `CCCCCN(CCCCC)C(=O)[C@@H](CCC(=O)OCc1ccccc1)NC(=O)c1cc2ccccc2[nH]1`, the TGI in [1], in test [3], in test [9], in test [6], in test [7] and in test [8] was more than 100 µM throughout.

Turning to `COc1ccc(OC)c(CCc2cc(OC)c(OC)cc2C)c1`, the TGI in test [1] was more than 100 µM; in [3] it was more than 100 µM; in test [9], more than 100 µM; in [5] it was 90.1 µM; in test [6] it was more than 100 µM; in test [7], more than 100 µM. Also, in test [8], the TGI is more than 100 µM.
